Data published in patent US9687480B2, “Chiral 1-(4-methylphenylmethyl)-5-oxo-{N-[(3-t-butoxycarbonyl-aminomethyl)]-piperidin-1-yl)-pyrrolidine as inhibitors of collagen induced platelet activation and adhesion” (Council of Scientific & Industrial Research, priority 2011, dated 2017).

Tests used:
mice = test: Tail bleeding time in mice; assay type: in vivo; conditions: aspirin 170 μM/kg, clopidogrel 30 μM/kg
Description: Bleeding time in mice was evaluated by the method of Dejana et al, (Dejana E, Callioni A, Quintana A, Gaetano G. Bleeding time in laboratory animals. II—A comparison of different assay conditions in rats. […] The time elapsed from the tip incision to the stoppage of bleeding was determined as the bleeding time. The preferred compounds, aspirin (30 mg/kg) or vehicle was given orally 60 min prior to the tail incision in a group of 5 mice each.

mouse platelets = test: Platelet adhesion over collagen matrix (mice, ex vivo); assay type: in vivo; conditions: oral route, compound 6 10, 30, 100 μM/kg, aspirin 100 μM/kg
Description: FIG. 4b: Adhesion of mouse platelets on collagen matrix as observed under fluorescence microscope 40× (ex vivo method). Different pictures show the different treatment performed. Washed murine platelets (2×10^6/ml) were obtained from animals pretreated with the compound (compound 6) (different doses) and seeded on BSA or Collagen (fibrillar) coated cover slips (A, B). Platelets from untreated animals were allowed to adhere on uncoated and BSA coated cover slip respectively to delineate the possibility of non specific binding. C, D. control platelets were adhered on collagen coated cover slip (control). E. F&G. Platelets obtained from animals pre-treated with compound 6 (10 μM/kg, 30 μM/kg & 100 μM/kg) respectively were adhered on collagen coated cover slip. H, I. Platelets from Aspirin (100 μM/kg) & Clopidogrel treated (100 μM/kg) animals resp. (standard Drugs) and adhered on collagen coated cover slip (n=5, 5 animals/group/experiment).

rats = test: FeCl3 induced carotid artery thrombosis in rats; assay type: in vivo; conditions: rats; compound 1 at the same dose as compound 6; aspirin at a very high dose
Description: Male SD rats were anesthetized by urethane (1.25 g/kg, i.p.). The carotid artery was carefully dissected and a pulsed Doppler Probe (DBF-120A-CPx, CBI-8000, Crystal Biotech, USA) was placed around it to record the blood flow velocity and patency of the blood vessels. The carotid artery thrombosis was induced by FeCl3 as follows: a square (1×1 mm) of Whatman Chromatography paper was immersed in 20% FeCl3 solution for 5 min and placed on the carotid artery as described earlier (Kurz K D, Main B W, Sandusky G E. Rat model of arterial thrombosis induced by ferric chloride. Thromb Res 1990; 60(4):269-80). Thrombosis was monitored as the reduction in carotid artery blood flow. The time at which the blood-flow velocity was decreased to zero was recorded as the total of occlusion (TTO) of the carotid artery. […] (Ferric Chloride induced thrombosis (FIG. 7))

hamster platelets = test: Platelet adhesion on collagen coated surface (hyperlipidemic hamster model, ex vivo); assay type: in vivo, hamsters; conditions: hyperlipidemic hamsters, ex vivo
Description: Platelet adhesion to collagen was measured in polystyrene 96-well micro titer plates. Micro titer plates were coated with insoluble equine tendon native fibrillar type I collagen (Chrono-Log Corp. Havertown, USA), 2 μg/well in 5 mM acetic acid (Tandon N N, Ockenhouse C F, Greco […]. Adhesive functions of platelet lacking GPIV (CD36). Blood 1991; 78: 2809-13) overnight at 4° C. The unoccupied protein binding sites on the wells were blocked with 0.5% BSA in Tyrode's-HEPES buffer (136.7 mM NaCl, 13.8 mM NaHCO3. 0.36 mM NaH2PO4.H2O, 2.6 mM KCl, 1.0 mM MgCl2.6H2O, 5.5 mM glucose, pH 7.4) at room temperature for 1 hour, and then rinsed once with PBS. Washed platelets were suspended in the Tyrode's-HEPES buffer and added to the wells (2×10^7 cells/well) for 1 h at room temperature. After three washes with PBS, the number of adherent platelets was evaluated colorimetrically (Bellavite P., Andrioli G., Gizzo P., Arigliano P., Chirumbolo […] colorimetric method for the measurement of platelet adhesion in microtiter plates. Anal. Blochem. 1994; 216:444-450). Briefly, 150 μl of a 0.1 M citrate buffer (pH 5.4), containing 5 mM p-nitrophenyl phosphate and 0.1% TritonX-100 was added to the wells after washing. After incubation for 30 minutes at 25° C. in the absence of ambient light, colour was developed by the addition of 100 μl of 2N NaOH and the absorbance at 405 nm was read using a microplate reader (Powerware XS, Biotek, USA).

hyperlipidemic hamsters [1] = test: FeCl3 induced thrombosis in hyperlipidemic hamsters; assay type: in vivo; conditions: HCHF fed hamsters
Description: HCHF treated hamsters were anesthetized by urethane (1.25 g/kg, i.p.). The carotid artery was carefully dissected and a pulsed Doppler Probe (DBF-120A-CPx, CBI-8000, Crystal Biotech. USA) was placed around it to record the blood flow velocity and potency of the blood vessels. The carotid artery thrombosis was induced by FeCl3 as follows: a square (1×1 mm) of Whatman Chromatography paper was immersed in 30% FeCl3 solution for 5 min and placed on the carotid artery as described earlier (Kurz K D, Main B W, Sandusky G E. Rat model of arterial thrombosis induced by ferric chloride. Thromb Res 1990; 60(4):269-80). Thrombosis was monitored as the reduction in carotid artery blood flow. The time at which the blood-flow velocity was decreased to zero was recorded as the total of occlusion of the vessel.

hyperlipidemic hamsters [2] = test: Arterio-venous shunt model in hyperlipidemic hamsters; assay type: in vivo; conditions: hyperlipidemic hamsters; compound 6 at 10 μM/kg
[3] = tested on: hamster whole blood (ADP 10 μM); test: Whole blood aggregation in hyperlipidemic hamsters (ex vivo), ADP induced; conditions: HCHF hamsters ex vivo, aspirin 100 μM/kg, clopidogrel 30 μM/kg
[4] = tested on: hamster whole blood (Collagen 2.5 μg/ml); test: Whole blood aggregation in hyperlipidemic hamsters (ex vivo), collagen induced; conditions: HCHF hamsters ex vivo, aspirin 100 μM/kg, clopidogrel 30 μM/kg
[5] = tested on: hamster whole blood (Thrombin 1 U/ml); test: Whole blood aggregation in hyperlipidemic hamsters (ex vivo), thrombin induced; conditions: HCHF hamsters ex vivo; aspirin 100 μM/kg, clopidogrel 30 μM/kg

bleeding time, standard drugs (mice) | SMILES | platelet adhesion (ex vivo) over collagen surface (mouse platelets) | time to occlude the carotid artery (TTO) (rats) | platelet adhesion over collagen coated surface (hamster platelets) | time to occlusion (TTO) (hyperlipidemic hamsters [1]) | thrombus weight (hyperlipidemic hamsters [2]) | ADP induced whole blood platelet aggregation [3] | collagen induced whole blood platelet aggregation [4] | collagen induced whole blood platelet aggregation ([4]; listed as Aspirin) | thrombin induced whole blood platelet aggregation [5] | ADP induced whole blood platelet aggregation ([3]; listed as Clopidogrel)
significantly prolonged | CC(=O)Oc1ccccc1C(=O)O [aspirin, reference compound] | did not exhibit any inhibitory effect | remained ineffective | no alteration | significantly prolonged | significantly reduced | can only inhibit ADP and Thrombin | but not collagen induced aggregation | reduced platelet aggregation in response to collagen | can only inhibit ADP and Thrombin | 
 | COC(=O)[C@H](c1ccccc1Cl)N1CCc2sccc2C1 [clopidogrel, reference compound] |  |  | significant reduction | significantly prolonged | significantly reduced | can only inhibit ADP induced aggregation | inhibited ADP and collagen induced platelet aggregation |  |  | inhibited ADP and collagen induced platelet aggregation
